Test results published in publication PMC3880967, “Isolation of a novel alkaline-stable lipase from a metagenomic library and its specific application for milkfat flavor production” (Microbial Cell Factories, 2014).

What follows are molecules tested against T1, Est_p6 (uncultured bacterium, UniProt D7NJ22) (assay: spectrophotometric pNP release at […] nm, Lineweaver-Burk). Details: 50 mM Tris-HCl pH 8.60, 50°C, 4% ethanol.
T1 construct: predicted signal peptide (residues 1-26) removed, from residue 27 of 357; C-terminal 6xHis tag kept (pET-28a, NcoI/HindIII); E. coli BL21(DE3); Ni-NTA; 36 kDa by SDS-PAGE
T1 sequence (D7NJ22 27-357 limits assumed): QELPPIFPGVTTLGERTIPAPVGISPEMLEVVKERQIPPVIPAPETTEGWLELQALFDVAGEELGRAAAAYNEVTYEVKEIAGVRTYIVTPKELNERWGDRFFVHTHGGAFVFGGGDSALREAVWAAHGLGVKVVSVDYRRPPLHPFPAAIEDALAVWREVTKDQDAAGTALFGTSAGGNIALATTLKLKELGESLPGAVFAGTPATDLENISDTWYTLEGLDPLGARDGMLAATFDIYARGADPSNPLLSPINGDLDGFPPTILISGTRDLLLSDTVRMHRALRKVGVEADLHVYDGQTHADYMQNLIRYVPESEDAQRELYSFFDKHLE
Type: biochemical

Compound	Km
CC(=O)Oc1ccc([N+](=O)[O-])cc1 [C2, pNP acetate]	2.64 mM
CCCC(=O)Oc1ccc([N+](=O)[O-])cc1 [C4, pNP butyrate]	1.15 mM
CCCCCCCC(=O)Oc1ccc([N+](=O)[O-])cc1 [C8, pNP caprylate]	0.322 mM
CCCCCCCCCC(=O)Oc1ccc([N+](=O)[O-])cc1 [C10, pNP caprate]	1.28 mM
CCCCCCCCCCCC(=O)Oc1ccc([N+](=O)[O-])cc1 [C12, pNP laurate]	0.149 mM
